Source: patent US5229381A, “Substituted azetidinones as anti-inflammatory and antidegenerative agents” (Merck & Co., Inc., priority 1991, dated 1993)
Like-named read-outs stand apart in the source and are kept apart here. One block for each compound: values may come before it.

Molecular target: T1, human polymorphonuclear leukocyte elastase (Homo sapiens, UniProt P08246)
T1 construct: Crude extract of human polymorphonuclear leukocytes (PMN) containing elastase activity; endogenous in cells; host or cells: human polymorphonuclear leukocytes (crude extract)
T1 sequence (P08246 30-247 limits assumed): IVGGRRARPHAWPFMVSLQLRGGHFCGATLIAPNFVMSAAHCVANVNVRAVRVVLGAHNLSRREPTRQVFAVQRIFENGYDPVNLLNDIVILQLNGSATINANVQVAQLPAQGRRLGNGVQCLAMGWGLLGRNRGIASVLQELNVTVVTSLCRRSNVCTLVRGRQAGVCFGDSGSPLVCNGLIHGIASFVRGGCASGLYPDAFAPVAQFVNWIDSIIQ
Assay: Inhibition of human polymorphonuclear leukocyte (granulocyte) elastase via hydrolysis of Boc-AAPAN or Boc-AAPVN
Assay type: biochemical
Conditions: for Ki: read-out: Ki, concentration of the inhibitor giving 50% of the control enzyme activity

[1] = pH 7.5, Table VI, (per mole per second), read-out: kobs/I, second order rate constant of inactivation of the enzyme
[2] = pH 7.5, Table II, (per mole per second), read-out: kobs/I, second order rate constant of inactivation of the enzyme
[3] = pH 7.5, Table III, (per mole per second), read-out: kobs/I, second order rate constant of inactivation of the enzyme
[4] = pH 7.5, read-out: kobs/I, second order rate constant of inactivation of the enzyme

Experimental: Enzyme Assays for the Inhibition of Human Polymorphonuclear Leukocyte Elastase Via Hydrolysis of N-t-Boc-alanyl-alanyl-prolylalanine-p-nitroanilide (Boc-AAPAN) or N-t-Boc-alanyl-prolylvaline-p-nitroanilide (Boc-AAPVN) Reagent:
0.05M TES (N-tris[hydroxymethyl]methyl-2-amino-ethanesulfonic acid) Buffer, pH 7.5.
0.2 mM Boc-AAPAN or Boc-AAPVN.
To prepare substrate, the solid was first dissolved in 10.0 ml DMSO. Buffer at pH 7.5 was then added to a final volume of 100 ml.
Crude extract of human polymorphonuclear leukocytes (PMN) containing elastase activity.
Inhibitors (azetidinones) to be tested dissolved in DMSO just before use.
To 1.0 ml of 0.2 mM Boc-AAPAN in a cuvette, 0.01-0.1 ml of DMSO with or without inhibitor was added. After mixing, a measurement was taken at 410 mμ to detect any spontaneous hydrolysis due to presence of test compound. 0.05 Milliliters of PMN extract was then added and the ΔOD/min at 410 mμ was measured and recorded. Beckman model 35 spectrophotometer was used.
Results were also expressed as Ki, the micromolar concentration of the inhibitor (μM) giving 50% of the control enzyme activity; or as ^k obs/I which is the second order rate constant in per mole per second for inactivation of the enzyme.
The elastase activity in the crude PMN extract may vary from one preparation to another. A control of each new batch is run, and the volume added in the assay procedure is adjusted according to activity.

SMILES: CCC[C@@H](NC(=O)N1C(=O)C(CC)(CC)[C@@H]1Oc1ccc(CC(=O)O)cc1)c1ccc2occc2c1 [Table VI: 4-Ch2(OOH); nPr; 3,4(-CHCHO), (4S)-3,3-Diethyl-1-[[(R)-1-(benzofuran-5-yl)butylamino]carbonyl]-4-[4-(carboxymethyl)phenoxy]azetidin-2-one]
kinact/KI [1]: 848000 M⁻¹ s⁻¹

SMILES: CCC1(COC)C(=O)N(C(=O)NCc2ccc(-c3ccccc3)cc2)C1Oc1ccc(C(=O)O)cc1 (centres unmarked)
kinact/KI [2]: 44500 M⁻¹ s⁻¹

SMILES: CCCC(NC(=O)N1C(=O)C(CC)(COC)C1Oc1ccc(C(=O)O)cc1)c1ccccc1 (centres unmarked)
kinact/KI [2]: 75000 M⁻¹ s⁻¹

SMILES: CCC1C(=O)N(C(C)=O)C1OC(C)=O (centres unmarked) [Table I: H; C2 H5; OCOCH3; COCH3]
ID50, effective dosage for 50% inhibition of the enzyme activity two minutes after time zero (Table I, 2 min after time zero, crude PMN extract, pH 7.5): 100 µg/mL | Ki (Table I): 360 nM | kinact/KI [4]: 15100 M⁻¹ s⁻¹

SMILES: CCCCCCCCCNC(=O)N1C(=O)C(CC)(CC)C1Oc1ccc(C(=O)O)cc1 (centres unmarked)
kinact/KI [2]: 8300 M⁻¹ s⁻¹

SMILES: CCC1(CC)C(=O)N(C(=O)NC(C)c2ccc(C3CCCCC3)c(Cl)c2)C1Oc1ccc(C(=O)O)cc1 (centres unmarked)
kinact/KI [2]: 20800 M⁻¹ s⁻¹

SMILES: CCC1C(=O)N(C(C)=O)C1OC(=O)CCC(=O)O (centres unmarked)
Ki (Table I): 2000 nM | kinact/KI [4]: 4510 M⁻¹ s⁻¹

SMILES: CCC1(CC)C(=O)N(C(=O)NC(C)c2cccc3ccccc23)C1Oc1ccc(C(=O)O)cc1 (centres unmarked)
kinact/KI [2]: 14100 M⁻¹ s⁻¹

SMILES: CC[C@@H](NC(=O)N1C(=O)C(CC)(CC)[C@@H]1Oc1ccc(C(=O)CCC(=O)O)cc1)c1ccccc1 [Table VI: 4-CO(CH2)2 COOH; Et; H]
kinact/KI [1]: 272000 M⁻¹ s⁻¹

SMILES: CCC1(C)C(=O)N(C(=O)N2CCc3ccccc3C2)C1Oc1ccc(C(=O)O)cc1 (centres unmarked)
kinact/KI (pH 7.5, Table IV, (per mole per second), read-out: kobs/I, second order rate constant of inactivation of the enzyme): 4380 M⁻¹ s⁻¹

SMILES: CCC[C@@H](NC(=O)N1C(=O)C(CC)(CC)[C@@H]1Oc1ccc(C(=O)O)c(C)c1)c1ccc(C)cc1 [Table VI: 3-Me,4-COOH; nPr; 4-Me, (4S)-3,3-diethyl-1-[(R)-α-n-propyl-(4-methyl)benzylaminocarbonyl]-4-[(4-carboxy-3-methyl)phenoxy]azetidin-2-one]
kinact/KI [1]: 186000 M⁻¹ s⁻¹

Now from value to compound:

kinact/KI [3]: 2900 M⁻¹ s⁻¹
SMILES: CCC1(CC)C(=O)N(C(=O)NCc2ccc(-c3ccccc3)cc2)C1OCC(=O)O (centres unmarked) [Table III: OCH2 COOH; CH2 Ph-4-Ph]

kinact/KI (pH 7.5, Table V, (per mole per second), read-out: kobs/I, second order rate constant of inactivation of the enzyme): 140000 M⁻¹ s⁻¹
SMILES: CC[C@@H](NC(=O)N1C(=O)C(CC)(CC)[C@@H]1Oc1ccc(CC(=O)O)cc1)c1ccccc1 [Table V: 4-CH2 COOH; Et; H]

kinact/KI [3]: 3660 M⁻¹ s⁻¹
SMILES: CCC1(CC)C(=O)N(C(=O)NCc2ccccc2)C1Sc1nnnn1C (centres unmarked)

kinact/KI [2]: 13200 M⁻¹ s⁻¹
SMILES: CCC1(CC)C(=O)N(C(=O)NCc2cc3ccccc3o2)C1Oc1ccc(C(=O)O)cc1 (centres unmarked)

kinact/KI [2]: 12500 M⁻¹ s⁻¹
SMILES: CCC1(C)C(=O)N(C(=O)NCc2ccccc2)C1Oc1ccc(C(N)=O)cc1 (centres unmarked)

kinact/KI [3]: 496 M⁻¹ s⁻¹
SMILES: CCC1(CC)C(=O)N(C(=O)NCc2ccccc2)C1NC(=O)OC (centres unmarked) [Table III: NHCOOMe; CH2 Ph]

kinact/KI [3]: 1680 M⁻¹ s⁻¹
SMILES: CCC1(CC)C(=O)N(C(=O)NCc2ccccc2)C1Oc1ccc(C(NC(C)=O)C(=O)O)cc1 (centres unmarked) [Table III: O-(4-CH(COOH)NHAcPh); CH2 Ph]

kinact/KI [1]: 6980 M⁻¹ s⁻¹
SMILES: CCC1(CC)C(=O)N(C(=O)N[C@H](COC)c2ccccc2)[C@H]1Oc1ccc(C(=O)O)cc1 [Table VI: 4-COOH; CH2 OMe(s); H]

kinact/KI [1]: 188000 M⁻¹ s⁻¹
SMILES: CCC[C@@H](NC(=O)N1C(=O)C(CC)(CC)[C@@H]1Oc1ccc(CC(=O)O)cc1)c1ccccc1 [Table VI: 4-CH2 COOH; nPr; H, (4S)-3,3-diethyl-1-[(R)-α-n-propylbenzylamino-carbonyl]-4-[(4-carboxymethyl)phenoxy]azetidin-2-one]
